Holding throughout (type): cell-based
One assay deals with Neisseria gonorrhoeae. The experiment in a line: EC50 determination: plate-based broth growth assay (absorbance at 600 nm) of Neisseria gonorrhoeae. The conditions noted are these: absorbance 600 nm after 20 hours at 37° C./5% CO2, read-out: IC50 (Inhibitory concentration) against Neisseria gonorrhoeae. The essentials: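 Mid-log culture diluted to ~10^5 cells/ml as inoculum and grown 20 hours at 37° C./5% CO2 across a 10-point compound dilution series. Growth read as absorbance at 600 nm; EC50 taken from transformed data as the concentration giving 50% response relative to no-compound controls.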

A further assay deals with Staphylococcus aureus. The experiment in a line: EC50 determination: broth growth assay of Staphylococcus aureus (Isosensitest broth). Particulars: Table 1, panel of bacteria, 37° C., read-out: IC50 concentration against Staphylococcus aureus. Here is the method: (§1) Actively growing Neisseria gonorrhoeae on GC agar (based on; Spence et. al. (2008): Curr. Protoc. Microbiol. 8:4A.1.1-4A.1.26) plates are harvested and transferred to GC broth (based on; Spence et al (2008): Curr. Protoc. Microbiol. 8:4A.1.1-4A.1.26) to generate a liquid stock. This culture is allowed to establish and grow to mid-log phase (at 37° C./5% CO2), finally this culture is diluted (˜10^5 cells/ml) to generate a seed inoculum to establish plate-based broth assays. EC50 values were determined by assaying growth (absorbance read at 600 nm, after 20 hours at 37° C./5% CO2) of Neisseria gonorrhoeae across a 10-point dilution series of the test compound. The EC50 value is determined from transformed data to identify the concentration of compound giving a 50% response relative to control samples (no compound).
(§2) EC50 determination for Staphylococcus aureus and Enterococcus Spp. followed a similar procedure but were conducted using Isosensitest broth (Oxoid) with incubations at 37° C. in atmospheric air. Final absorbance reads were conducted during the late exponential growth phase.

Another assay deals with Enterococcus Spp. The experiment in a line: EC50 determination: broth growth assay of Enterococcus Spp. (Isosensitest broth). Particulars: Table 1, panel of bacteria, 37° C. Here is the method:
as §1, §2

The mark [1] stands for this setting: Enterococcus faecalis, read-out: IC50 concentration against Entercoccus faecalis.
The mark [2] stands for this setting: Enterococcus faecium, read-out: IC50 concentration against Enterococcus faecium.

Where two headings read alike, the source gives them in different places.

On to `FC(F)(F)c1ccc2oc(Nc3nc4cnccc4o3)nc2c1` [Example 60, N-(5-(triFluoromethyl)benzo[d]oxazol-2-yl)oxazolo[4,5-c]pyridin-2-amine], for which the IC50 with Neisseria gonorrhoeae is at most 0.1 µM; in the assay on Staphylococcus aureus, at most 10 µM; in the assay on Enterococcus Spp. (setting [1]), at most 1 µM; with Enterococcus Spp. (setting [2]) it was at most 10 µM.
For the compound `FC(F)(F)c1ccc2oc(Nc3nnco3)nc2c1` [Example 67, N-(1,3,4-Oxadiazol-2-yl)-5-(trifluoromethyl)benzo[d]oxazol-2-amine], the IC50 was at most 0.1 µM with Neisseria gonorrhoeae, at most 1 µM in the assay with Staphylococcus aureus, at most 10 µM in the assay with Enterococcus Spp. (setting [1]) and at most 1 µM in the assay with Enterococcus Spp. (setting [2]).
`FC(F)(F)c1cc2nc(Nc3nnc(CN4CCCC4)o3)oc2cc1Cl` [Example 80, 6-Chloro-N-(5-(pyrrolidin-1-ylmethyl)-1,3,4-oxadiazol-2-yl)-5-(trifluoromethyl)benzo[d]oxazol-2-amine]: the IC50 in the assay on Neisseria gonorrhoeae is at most 0.1 µM; with Staphylococcus aureus, at most 1 µM; in the assay on Enterococcus Spp. (setting [1]), at most 1 µM; in the assay on Enterococcus Spp. (setting [2]) it was at most 10 µM.
Turning to `FC(F)(F)c1ccc2nc(Nc3nnc(C4CC4)o3)oc2c1` [Example 105, N-(5-Cyclopropyl-1,3,4-oxadiazol-2-yl)-6-(trifluoromethyl)benzo[d]oxazol-2-amine], the IC50 was at most 0.1 µM with Neisseria gonorrhoeae, at most 1 µM with Staphylococcus aureus, at most 1 µM with Enterococcus Spp. (setting [1]) and at most 1 µM in the assay on Enterococcus Spp. (setting [2]).
On to `Cc1nnc(Nc2nc3cc(C(F)(F)F)ccc3o2)[nH]1` [Example 117, N-(5-Methyl-4H-1,2,4-triazol-3-yl)-5-(trifluoromethyl)benzo[d]oxazol-2-amine], for which the IC50 is at most 1 µM in the assay on Neisseria gonorrhoeae, at most 1 µM in the assay on Staphylococcus aureus, at most 10 µM in the assay on Enterococcus Spp. (setting [1]) and at most 10 µM in the assay with Enterococcus Spp. (setting [2]).
Turning to `Clc1ccc2nc(Nc3nc4cnccc4o3)oc2c1` [Example 159, N-(6-Chlorobenzo[d]oxazol-2-yl)oxazolo[4,5-c]pyridin-2-amine], the IC50 in the assay on Neisseria gonorrhoeae, in the assay with Staphylococcus aureus, in the assay on Enterococcus Spp. (setting [1]) and in the assay with Enterococcus Spp. (setting [2]) was at most 100 µM in each case.
Consider `FC(F)(F)c1cc2oc(Nc3nc4cc(Cl)ccc4o3)nc2cn1` [Example 165, N-(5-Chlorobenzo[d]oxazol-2-yl)-6-(trifluoromethyl) oxazolo[4,5-c]pyridin-2-amine], for which the IC50 in the assay on Neisseria gonorrhoeae was at most 1 µM; in the assay with Staphylococcus aureus, at most 10 µM; in the assay on Enterococcus Spp. (setting [1]), at most 10 µM; with Enterococcus Spp. (setting [2]) it was at most 10 µM.
`FC(F)(F)c1cc2[nH]c(Nc3nc4ccccc4o3)nc2cn1` [Example 170, N-(6-(Trifluoromethyl)-1H-imidazo[4,5-c]pyridin-2-yl)benzo[d]oxazol-2-amine]: the IC50 with Neisseria gonorrhoeae was at most 1 µM; with Staphylococcus aureus it was at most 10 µM; with Enterococcus Spp. (setting [1]) it was at most 10 µM; with Enterococcus Spp. (setting [2]) it was at most 10 µM.
For `NC(=O)c1nnc(Nc2nc3cc(F)ccc3o2)o1` [Example 202, 5-((5-Fluorobenzo[d]oxazol-2-yl)amino)-1,3,4-oxadiazole-2-carboxamide], the IC50 in the assay with Neisseria gonorrhoeae was at most 200 µM.
With `Cc1cc2nc(Nc3nnco3)oc2cc1F` [Example 203, 6-Fluoro-5-methyl-N-(1,3,4-oxadiazol-2-yl)benzo[d]oxa-zol-2-amine], in the assay with Neisseria gonorrhoeae, the IC50 is at most 0.1 µM.
For the compound `COc1cc2nc(Nc3nnco3)oc2cc1Cl` [Example 204, 6-chloro-5-methoxy-N-(1,3,4-oxadiazol-2-yl)benzo[d]oxa-zol-2-amine], the IC50 in the assay with Neisseria gonorrhoeae was at most 1 µM.
As for `FC(F)(F)Oc1cc2nc(Nc3nnco3)oc2cc1Cl` [Example 205, 6-Chloro-N-(1,3,4-oxadiazol-2-yl)-5-(trifluoro-methoxy)benzo [d]ox-azol-2-amine], the IC50 with Neisseria gonorrhoeae was at most 1 µM.
For the compound `COc1cc2oc(Nc3nnco3)nc2cc1F` [Example 206, 5-Fluoro-6-methoxy-N-(1,3,4-oxadiazol-2-yl)benzo[d]oxa-zol-2-amine], the IC50 with Neisseria gonorrhoeae was at most 1 µM.
On to `Fc1cc2oc(Nc3nnco3)nc2cc1OC(F)(F)F` [Example 207, 6-Fluoro-N-(1,3,4-oxadiazol-2-yl)-5-(trifluoromethoxy) benzo[d]ox-azol-2-amine], for which, in the assay on Neisseria gonorrhoeae, the IC50 is at most 0.1 µM.
The same measure, in the same setting: the result for `COc1cc2oc(Nc3nnco3)nc2cc1C` [Example 208, 6-Methoxy-5-methyl-N-(1,3,4-oxadiazol-2-yl)benzo[d]oxa-zol-2-amine] reads at most 1 µM; that for `COc1cc2nc(Nc3nnco3)oc2cc1F` [Example 209, 6-Fluoro-5-methoxy-N-(1,3,4-oxadiazol-2-yl)benzo[d]oxa-zol-2-amine], at most 1 µM; that for `FC(F)(F)Oc1ccc2nc(Nc3nnco3)oc2c1` [Example 210, N-(1,3,4-Oxadiazol-2-yl)-6-(trifluoromethoxy) benzo[d]ox-azol-2-amine], at most 0.1 µM.
With `CC(C)c1ccc2nc(Nc3nnco3)oc2c1` [Example 211, 6-Isopropyl-N-(1,3,4-oxadiazol-2-yl)benzo[d]oxa-zol-2-amine], in the assay on Neisseria gonorrhoeae, the IC50 was at most 1 µM.
As to `O=C1CCCN1c1ccc2nc(Nc3nnco3)oc2c1` [Example 212, 1-(2-((1,3,4-oxadiazol-2-yl)amino)benz-o[d]oxazol-6-yl)pyrrolidin-2-one], the IC50 with Neisseria gonorrhoeae is at most 100 µM.
Regarding `Clc1ccc2nc(Nc3nnc(C4CCCO4)o3)oc2c1` (centres unmarked) [Example 213, 6-Chloro-N-(5-(tetrahydrofuran-2-yl)-1,3,4-oxadiazol-2-yl)benzo[d]oxa-zol-2-amine], in the assay on Neisseria gonorrhoeae, the IC50 was at most 0.1 µM.
Still for that read-out and setting: the result for `CC(C)c1nnc(Nc2nc3ccc(Cl)cc3o2)o1` [Example 214, 6-Chloro-N-(5-isopropyl-1,3,4-oxadiazol-2-yl)benzo[d]oxa-zol-2-amine] reads at most 0.1 µM; that for `CC(=O)N(C)c1ccc2nc(Nc3nnco3)oc2c1` [Example 215, N-(2-((1,3,4-Oxadiazol-2-yl)amino)benz-o[d]oxazol-6-yl)-N-methylacetamide], at most 100 µM; that for `CCOC(=O)c1noc(Nc2nc3ccc(Cl)cc3o2)n1` [Example 216, Ethyl 5-((6-chlorobenzo[d]oxazol-2-yl)amino)-1,2,4-oxadiazole-3-carboxylate], at most 1 µM.
Same read-out and setting: the result for `N#Cc1nnc(Nc2nc3ccc(Cl)cc3o2)o1` [Example 217, 5-((6-Chlorobenzo[d]oxazol-2-yl)amino)-1,3,4-oxadiazole-2-carbonitrile] reads at most 0.1 µM.
On the same count and under the same terms, the figure for `N#Cc1nnc(Nc2nc3ccc(F)cc3o2)o1` [Example 218, 5-((6-Fluorobenzo[d]oxazol-2-yl)amino)-1,3,4-oxadiazole-2-carbonitrile] is at most 1 µM; for `N#Cc1nnc(Nc2nc3cc(F)ccc3o2)o1` [Example 219, 5-((5-Fluorobenzo[d]oxazol-2-yl)amino)-1,3,4-oxadiazole-2-carbonitrile] it is at most 1 µM.
For `Clc1cnc2nc(Nc3nnco3)oc2c1` [Example 220, 6-Chloro-N-(1,3,4-oxadiazol-2-yl)oxazolo[4,5-b]pyridin-2-amine], the IC50 in the assay with Neisseria gonorrhoeae was at most 10 µM.
The same measure, in the same setting: the result for `Clc1ccc2nc(Nc3cocn3)oc2c1` [Example 221, 6-Chloro-N-(oxazol-4-yl)benzo[d]oxazol-2-amine] reads at most 1 µM; that for `Clc1ccc2nc(Nc3ccsn3)oc2c1` [Example 222, 6-Chloro-N-(isothiazol-3-yl)benzo[d]oxazol-2-amine], at most 1 µM.
Still for that read-out and setting: the figure for `O=C(O)c1nnc(Nc2nc3ccc(F)cc3o2)o1` [Example 223, Sodium 5-((6-fluorobenzo[d]oxazol-2-yl)amino)-1,3,4-oxadiazole-2-carboxylate] is at most 100 µM; for `Clc1ccc2nc(Nc3ncno3)oc2c1` [Example 224, 6-chloro-N-(1,2,4-oxadiazol-5-yl)benzo[d]oxazol-2-amine] it is at most 100 µM.
Still for that read-out and setting: the result for `Clc1ccc2nc(Nc3cnoc3)oc2c1` [Example 225, 6-Chloro-N-(isoxazol-4-yl)benzo[d]oxazol-2-amine] reads at most 100 µM.
